The values below are quoted from earlier work in patent publication US20260069581A1, “METHODS AND COMPOSITIONS FOR CANCER THERAPY” (OHIO STATE INNOVATION FOUNDATION, priority 2020, published 2026).

For data set [1], the system named is prostate cancer and lung adenocarcinoma cells. As to conditions: Ref. 32; cited from earlier work.
The subject of a further data set is Rad51. The following applies: Ref. 33; cited from earlier work.
Another data set relates to AML. The following applies: low micromolar doses, Ref. 25; cited from earlier work.
Data set [2] relates to cell lines derived from T-cell lymphomas or leukemias. As to conditions: Ref. 25, cited from earlier work.
A further data set has as its system tubulin acetylation. The following applies: concentration as high as 50 μM, Ref. 25; cited from earlier work.

Consider `O=C(CCCCCCC(=O)Nc1ccccc1)NO` [vorinostat], for which the “Rad50 and MRE11 protein levels” value in data set [1] is listed as “downregulates”.

`CN(C)Cc1c(C(=O)NCCOc2ccc(C(=O)NO)cc2)oc2ccccc12` [PCI-2481]: the Rad51 expression result with Rad51 was “reduction of Rad51 expression”.

One may read the GI50 as the concentration giving 50% growth inhibition. For the molecule `COc1ccc(Cn2ccc3ccc(C(=O)NO)cc32)cc1` [PCI-34051], in the data set with AML, the AML death entry is “failed to induce AML death”. The apoptosis result in data set [2] is “induces caspase-dependent apoptosis”. The GI50 in data set [2] (cell lines derived from T-cell lymphomas or leukemias) is 2.4 to 4 µM. Moreover, the tubulin acetylation entry with tubulin acetylation is on record as “did not induce significant tubulin acetylation”.
